# Where two headings read alike, the source gives them in different places.
# How the values were obtained:
# postherpetic neuralgia = settings: Sindrup and Jensen; cited from earlier work
# rat sciatic nerve = settings: cited from earlier work
# [1] = system: isolated dorsal root ganglion neurons from chick embryos; settings: cited from earlier work
# [2] = system: gp120 model of painful HIV-associated peripheral neuropathy; assay: Mechanical allodynia (hind paw withdrawal threshold), gp120 model; assay type: in vivo, rat; settings: for mechanical allodynia, difference from control: p ≤0.05
# From the text: (§1) This study evaluated the effects of topical mepivacaine in DMSO painful HIV-associated peripheral neuropathy. HIV peripheral neuropathy in the rat was induced by sciatic nerve exposure to gp120.
# (§2) Under anesthesia, the left sciatic nerve of male rats was isolated by blunt dissection of the biceps, without damaging the perineurium. The HIV-1 viral envelope protein, gp120 was embedded in a carrier matrix and delivered directly to the sciatic nerve. The muscular layer was closed using 3-0 silk and the skin sealed with veterinarian-grade cyanoacrylate.
# (§3) A gauze pad was saturated with either mepivacaine in DMSO (vehicle) or vehicle alone and secured to the left plantar hind paw for 5 min. Rats were immediately tested after removal of the pad. Rats were then tested again at 5, 10 and 15 minutes after removal of the pad. Mepivacaine was tested at various concentrations. The treatment assignment was masked. A period of 48 hrs was allowed between retesting of the rats. The continued presence of hyperalgesia in the rats was confirmed by pre-drug application baseline testing on each test day.
# (§4) Plantar hind paw response to noxious heat and pressure application was evaluated before and one week following sciatic nerve surgery to confirm onset of hyperalgesia following gp120 administration. Following 15-20 min acclimation in the test chamber, a thermal heat stimulus was aimed at the mid-plantar hind paw as rats stand on a glass surface. The latency to a withdrawal response was recoded electronically. The stimulus intensity was adjusted to result in mean pre-surgical baseline latencies of approximately 12 seconds. Each hind paw was tested once to obtain a hind paw withdrawal latency. Mechanical allodynia was assessed by application of increasing pressure (32 g/sec) to the plantar hind paw over time. The withdrawal threshold (measured in grams) was reached when the rat withdrew its paw from the apparatus. The pre-surgical withdrawal threshold of naïve rats was about 175 g. Each hind paw was tested once to obtain a hind paw withdrawal threshold. Antinociception, or analgesia, was defined quantally as an increase in response over baseline.
# (§5) Statistical analysis for thermal hyperalgesia and mechanical allodynia were performed and statistical significance was declared if the two-sided p-value was ≤0.05. All computations were performed using SigmaStat™ for Windows™, Version 3.5.
# [3] = system: combined HIV viral envelope protein (gp120) and NRTI model of painful HIV-associated peripheral neuropathy; assay: Mechanical allodynia, zalcitabine plus gp120 model; assay type: in vivo, rat; settings: for mechanical allodynia, difference from control: p ≤0.05
# From the text: (§6) This study evaluated the effects of topical mepivacaine in DMSO painful HIV-associated peripheral neuropathy. HIV peripheral neuropathy in the rat was induced by sciatic nerve exposure to zalcitabine plus gp120.
# as §2, with “cyanoacrylate. Rats received intravenous tail injection of zalcitabine.” for “cyanoacrylate.”
# as §3
# as §4, with “Each hind paw was tested once to obtain a hind paw withdrawal threshold. Antinociception, or analgesia, was defined quantally as an increase in response over baseline.” left out
# [4] = Solubility of mepivacaine base in formulation solvents; assay type: physicochemical; settings: 2.5 g in 2.5 g of propylene glycol
# From the text: 2.5 g Mepivacaine base was suspended in 2.5 g of propylene glycol.
# [5] = Effect of formulation pH on flux, Franz-diffusion cell, nylon membrane; assay type: in vitro ADME; settings: for Total flux: Mepivacaine 10% w/w, HPMC K4M 3% gel
# Procedure: The influence of pH on the permeability of mepivacaine HCl from a variety of gel dosage forms was evaluated. The in-vitro drug release from gel formulations was studied across the Nylon 6, 6 membrane (0.22 μm) using Franz-diffusion cell with effective surface area of 3.14 cm^2 and receptor cell volume of 18 mL. The receptor compartment was filled with PBS pH 6.8 and maintained at 37±0.5° C. with constant magnetic stirring. 0.3-0.5 gm of gel was placed on the donor compartment. The samples (1 mL) were collected from the receptor compartment (dilutions made if required) at predetermined time interval for a period of 6-8 h and replaced by equal volume of fresh receptor solution to maintain constant volume. The amount of drug in the samples was assayed spectrophotometrically at 263 nm against appropriate blank. Studies were carried using HPMC K4M 3% as gelling agent with or without containing carvone (0.5%) as a penetration enhancer, so as to assess the effects of pH per se and pH in the presence of penetration enhancers. When Carbopol 3% was used as gelling agent, it gets precipitated out at pH below 5. HPMC gel formulations at pH 8.5 result in precipitation of mepivacaine from the gel. […] The maximum flux was obtained at pH 7.5.
# [6] = in vivo; cited from earlier work
# [7] = cited from earlier work
# [8] = system: gp120 model of painful HIV-associated peripheral neuropathy; assay: Thermal hyperalgesia (hind paw withdrawal latency), gp120 model; assay type: in vivo, rat; settings: for thermal hyperalgesia, difference from control: p ≤0.05
# From the text: as §1, §2, §3, §4, §5
# [9] = system: combined HIV viral envelope protein (gp120) and NRTI model of painful HIV-associated peripheral neuropathy; assay: Thermal hyperalgesia, zalcitabine plus gp120 model; assay type: in vivo, rat; settings: for thermal hyperalgesia, difference from control: p ≤0.05
# From the text: as §6
# as §2, with “cyanoacrylate. Rats received intravenous tail injection of zalcitabine.” for “cyanoacrylate.”
# as §3
# as §4, with “Each hind paw was tested once to obtain a hind paw withdrawal threshold. Antinociception, or analgesia, was defined quantally as an increase in response over baseline.” left out
# tail-flick model = assay: Tail-flick assay; assay type: in vivo, mice; settings: for tail-flick latency, difference from control: p ≤0.05
# Procedure: This study evaluated the effects of topical in DMSO mepivacaine in the tail-flick model.
# Male mice were maintained on a 12-h light/dark cycle with food and water available ad libitum. Mice were housed in groups of five until testing
# Drugs were given topically in DMSO (vehicle) on the tail by immersion of the tail in treatment solution for 5 minutes. Tail-flick latencies were then determined on the region of the tail immersed in the drug, unless otherwise stated. Mice were immediately tested after removal of the tail from the treatment solution and retested at 5 and 10 minutes. Mepivacaine was tested at various concentrations. The treatment assignment was masked.
# Analgesia was assessed with the tail-flick assay. Responses were measured by exposing the distal part of the tail to a thermal stimulus, and the latency of exposure was determined. The tail flick latency is the time interval between onset of the heat stimulus and withdrawal of the tail the thermal stimulus. Baseline latencies ranged from 2 to 3 s. Testing was performed immediately after termination of topical administration into the tail and at 5 and 10 minutes thereafter. Antinociception, or analgesia, was defined quantally as an increase in response over baseline.
# Statistical analysis was performed and statistical significance was declared if the two-sided p-value was ≤0.05. All computations were performed using SigmaStat™ for Windows™, Version 3.5.
# [10] = in vivo; cited from earlier work; remark: listed apart in the source
# [11] = topical in DMSO, pad on hind paw 5 min
compound,measurement,setting,value
COc1ccc2c3c1O[C@H]1C(=O)CC[C@@]4(O)[C@@H](C2)N(C)CC[C@]314 [oxycodone],NNT values in postherpetic neuralgia,postherpetic neuralgia,2.5
CCCCN1CCCCC1C(=O)Nc1c(C)cccc1C (stereo not drawn) [bupivacaine],neuronal damage in rat sciatic nerve,rat sciatic nerve; 0.75% (23.1 mM),do not
CCN(CC)CC(=O)Nc1c(C)cccc1C [lidocaine],"IC50 in the growth cone collapse assay, rank among lidocaine, bupivacaine, mepivacaine, ropivacaine",[1],lowest
same,neuronal damage in rat sciatic nerve,rat sciatic nerve; 80 mM (2.17%),induced neuronal damage
"COc1cc(CNC(=O)CCCC/C=C/C(C)C)ccc1O [topical capsaicin, capsaicin]",NNT values in postherpetic neuralgia,postherpetic neuralgia,5.3
"Cc1cccc(C)c1NC(=O)C1CCCCN1C (stereo not drawn) [Mepivacaine, 1-methyl-2′,6′-pipecoloxylidide]","mechanical allodynia, difference from control",[2]; 2 mg/mL in DMSO,significantly different from control
same,"mechanical allodynia, difference from control",[2]; 4 mg/mL in DMSO,significantly different from control
same,"mechanical allodynia, difference from control",[2]; 8 mg/mL in DMSO,significantly different from control
same,antinociceptive effects for mechanical allodynia,[2]; [11],short lived and variable antinociceptive effects
same,"mechanical allodynia, difference from control",[3]; 2 mg/mL,significantly different from control
same,"mechanical allodynia, difference from control",[3]; 4 mg/mL,significantly different from control
same,antinociceptive effects for mechanical allodynia,[3]; [11],short lived and variable antinociceptive effects
same,solubility in propylene glycol,[4],not sufficiently soluble
same,"IC50 in the growth cone collapse assay, rank among lidocaine, bupivacaine, mepivacaine, ropivacaine",[1],highest
same,Total flux,"[5]; carvone 0.5% w/w, pH 4.5",0.4251 mg/cm^2/hr
same,Total flux,"[5]; carvone 0.5% w/w, pH 5.5",0.5847 mg/cm^2/hr
same,Total flux,"[5]; carvone 0.5% w/w, pH 6.8",0.7245 mg/cm^2/hr
same,Total flux,"[5]; carvone 0.5% w/w, pH 7.5",0.8035 mg/cm^2/hr
same,Total flux,"[5]; no carvone, pH 4.5",0.4095 mg/cm^2/hr
same,Total flux,"[5]; no carvone, pH 5.5",0.6000 mg/cm^2/hr
same,Total flux,"[5]; no carvone, pH 6.8",0.7531 mg/cm^2/hr
same,Total flux,"[5]; no carvone, pH 7.5",0.7442 mg/cm^2/hr
same,irritation or tissue damage,[6],does not ordinarily produce irritation or tissue damage
same,methemoglobinemia,[6],does not cause methemoglobinemia
same,solubility in EtOH,[7],40 g/100 ml
same,"thermal hyperalgesia, difference from control",[8]; 2 mg/mL,significantly different from control
same,"thermal hyperalgesia, difference from control",[8]; 4 mg/mL,significantly different from control
same,"thermal hyperalgesia, difference from control",[8]; 8 mg/mL,significantly different from control
same,antinociceptive effects for thermal hyperalgesia,[8]; [11],short lived and variable antinociceptive effects
same,"thermal hyperalgesia, difference from control",[9]; 2 mg/mL,significantly different from control
same,"thermal hyperalgesia, difference from control",[9]; 4 mg/mL,significantly different from control
same,"antinociceptive effects, section Thermal Hyperalgesia (text says mechanical allodynia)",[9]; [11],short lived and variable antinociceptive effects
same,"tail-flick latency, difference from control",tail-flick model; 4 mg/mL,significantly different from control
same,"tail-flick latency, difference from control",tail-flick model; 8 mg/mL,significantly different from control
same,analgesia in tail-flick assay,tail-flick model; tail immersed 5 minutes in DMSO solution,short lived and variable analgesia
same,administered dose excreted into the bile as metabolites,[10],over 50%
same,bound to plasma proteins,[10],approximately 75%
same,excreted unchanged in the urine,[10],less than 10%
"Cc1cccc(C)c1NC(=O)C1CCCCN1C.Cl (racemic) [mepivacaine hydrochloride, 2-piperidinecarboxamide, N(2,6-dimethylphenyl)-1-methyl-, monohydrochloride]",formulation pH at which the maximum flux was obtained,[5]; HPMC gels pH 4.5-7.5,7.5
